According to patent publication US6436960B1, “Farnesyl transferase inhibitors having a piperidine structure and process for preparation thereof” (LG Chemical Ltd., priority 1998, dated 2002):

Assays:
Ras farnesyl transferase [1] = biological target: T1, Ras farnesyl transferase (Homo sapiens, UniProt P49354+P49356); assay: in vitro inhibitory activity for Ras farnesyl transferase, H-Ras substrate; assay type: biochemical; conditions: recombinant Ras farnesyl transferase, H-Ras substrate, tritium-farnesylpyrophosphate, 30 minutes at 37° C.; read-out: H-Ras IC50
T1 construct: made in house
Experimental: (§1) In the present experiment, Ras farnesyl transferase produced by genetic recombination techniques according to the improved Pompliano's method (Pompliano et al., Biochemistry, 1992, 31, 3800) was used, and Ras substrate(Ras-CVLS) protein described in Korean Patent Appln. No. 97-14409 was used after it has been purified according to the known method(see, Chung et al., Biochimica et Biophysica Acta, 1992, 278, 1129).
(§2) The enzyme reaction was performed in 50 μl of 50 mM Soduam HEPES buffer solution containing 25 mM of potassium chloride, 25 mM of magnesium chloride, 10 mM of DTT and 50 μM of zinc chloride. 1.5 μM of Ras substrate protein, 0.15 μM of tritium-farnesylpyrophosphate and 4.5 nM of farnesyl transferase were used.
(§3) More specifically, in the initial step, farnesyl transferase was added to the above buffer solution, reaction was maintained for 30 minutes at 37° C. and then the reaction was stopped by adding 1 ml of ethanol solution containing 1M HCl. The formed precipitates were adsorbed to GF/B filter using Hopper harvestor(Hopper #FH 225V) for filter-binding, washed with ethanol, and then radioactivity of the dried filter was measured using LKB β counter. Enzyme titer was measured in the unsaturated state of substrate where the concentrations of Ras substrate protein and farnesyl transferase have quantitative relationship. The compound according to the present invention dissolved in dimethyl sulfoxide(DMSO) was added to the reaction solution in an amount of less than 5% of the total reaction solution, and then the enzyme inhibitory activity thereof was measured. The enzyme inhibitory activity was represented by percentage of the amount of farnesyl incorporated into the Ras substrate protein in the presence of the test compound to that in the absence of the test compound. IC50 of the test compound was defined as the concentration at which 50% of the enzyme activity was inhibited.

Ras farnesyl transferase [2] = biological target: T1, Ras farnesyl transferase; assay: in vitro inhibitory activity for Ras farnesyl transferase, K-Ras substrate; assay type: biochemical; conditions: recombinant Ras farnesyl transferase, K-Ras substrate; read-out: K-Ras IC50
Experimental: as §1, with “and Ras substrate(Ras-CVLS) protein described in Korean Patent” left out
as §2, §3

Ras farnesyl transferase [3] = biological target: T2, Ras farnesyl transferase (Rattus norvegicus, UniProt Q02293+Q04631); assay: in vivo (cellular) Ras farnesyl transferase inhibitory activity, Rat2 cells transformed with H-Ras fused with polybasic lysine domain of K-Ras; assay type: cell-based; conditions: Rat2 cell line transformed with H-Ras substituted with polybasic lysine domain at C-terminus of K-Ras; concentration inhibiting 50% of farnesyl binding; read-out: K-Ras CIC50
T2 construct: endogenous in cells; host or cells: Rat2 fibroblasts transformed with C-Harvey-Ras, or with H-Ras carrying the K-Ras C-terminal polybasic lysine domain
Experimental: (§4) In the present experiment, Rat2 cell line which expresses C-Harvey-Ras protein having transforming activity and Rat2 cell line(Korean patent application No. 97-14409) which is transformed with fused protein of H-Ras substituted with polybasic lysine domain at C-terminus of K-Ras were used. The experiment was performed by the modified Declue's method(Declue. J. E. et al., Cancer Research, 1991, 51, 712). Hereinafter, the experimental method will be described in more detail.
(§5) 3×10^5 cells of transformed Rat2 fibroblast cell line were sprayed on 60 mm cell cultivation dish and cultivated for 48 hours in a cell incubator at 37° C. and after 50% or more of density was reached, it was treated with the test compounds. The compound according to the present invention dissolved in dimethylsulfoxide(DMSO) was used. 1% concentration of dimethylsulfoxide was used in both control and test groups. After 4 hours from the treatment with the compound, methionine labeled with 150 μCi of radioactive isotope [^35S] per 1 ml of medium was added and after cultivating for 20 hours, the cells were washed with physiological saline water. The cells were lysed using 1 ml of cold cell lysis buffer solution(50 mM of Sodium HEPES buffer solution containing 5 mM of magnesium chloride, 1 mM of DTT, 1% NP 40, 1 mM of EDTA, 1 mM of PMSF, 2 μM of leupeptin, 2 μM of pepstatin A and 2 μM of antipain) and the supernatant wherein the cells were lysed was obtained by high-velocity centrifugation of 12,000 g×5 minutes. The amount of radioisotope in the supernatant was measured and standardized to obtain a quantitative result in immunoprecipitation reaction and then, Y13-259, a monoclonal antiboby specifically binding to Ras protein(Furth, M. E. et al., J. Virol, 1982, 43, 294) was added and reacted for 15 hours at 4° C. Protein A(combined with goat anti-murine imunoglobulin antibody)-agarose suspension was added to the solution and reacted for 1 hour at 4° C. and then, to remove the unspecific binding product, immunoprecipitates were washed with a buffer solution (50 mM Tris chloride buffer solution containing 50 mM of sodium chloride, 0.5% of sodium dioxycholate, 0.5% of NP 40 and 0.1% of SDS). The precipitates were added to a buffer solution for electrophoresis and boiled and then, electrophoresis was performed using 13.5% of SDS polyacrylamide gel. After electrophoresis, the gel was fixed and dried. Then, the gel was exposed to X-ray film, developed and printed. From the result of the experiment, intensities of band of protein combined with or without farnesyl of Ras protein were measured, and the concentration of the test compound inhibiting 50% of farnesyl binding was defined as CIC50, an in vivo Ras farnesyl transferase inhibitory activity.

Ras farnesyl transferase [4] = biological target: T2, Ras farnesyl transferase; assay: in vivo (cellular) Ras farnesyl transferase inhibitory activity, Rat2 cells expressing C-Harvey-Ras; assay type: cell-based; conditions: Rat2 cell line expressing C-Harvey-Ras; concentration inhibiting 50% of farnesyl binding of Ras protein; read-out: H-Ras CIC50
Experimental: as §4, §5

Row | SMILES | IC50 (Ras farnesyl transferase [1]) | IC50 (Ras farnesyl transferase [2]) | IC50 (Ras farnesyl transferase [3]) | IC50 (Ras farnesyl transferase [4])
1 | COCCN(C)C(=O)c1cn(Cc2cncn2CC2CCN(C(=O)Cc3ccc(-c4ccccc4)cc3)CC2)cc1-c1cccc2ccccc12 [Compound 16, 1-{1-[1-(4-Biphenylacetyl)-piperidin-4-ylmethyl]-1H-imidazol-5-ylmethyl}-3-[N-(2-methoxyethyl)-N-methyl]carbamoyl-4-(naphthalen-1-yl)-1H-pyrrole] | 1 to 10 nM | 10 to 1000 nM | 1000 to 50000 nM | 10 to 100 nM
2 | COCCN(C)C(=O)c1cn(Cc2cncn2CC2CCN(C(=O)OC)CC2)cc1-c1cccc2ccccc12 [Compound 17, 1-[1-(1-Methoxycarbonyl-piperidin-4-ylmethyl)-1H-imidazol-5-ylmethyl]-3[N-(2-methoxyethyl)-N-methyl]carbamoyl-4-(naphthalen-1-yl)-1H-pyrrole] | 1 to 10 nM | 10 to 1000 nM | 10000 to 100000 nM | 10 to 100 nM
3 | CCC(=O)N1CCC(Cn2cncc2Cn2cc(C(=O)N(C)CCOC)c(-c3cccc4ccccc34)c2)CC1 [Compound 18, 3-[N-(2-Methoxyethyl)-N-methyl]carbamoyl-4-(naphthalen-1-yl)-1-[1-(1-propionyl-piperidin-4-ylmethyl)-1H-imidazol-5-ylmethyl]-1H-pyrrole] | 1 nM | 10 to 1000 nM | 1000 to 50000 nM | 10 to 100 nM
4 | COCCN(C)C(=O)c1cn(Cc2cncn2CC2CCN(C(=O)OCc3cccc4ccccc34)CC2)cc1-c1cccc2ccccc12 [Compound 19, 3-[N-(2-Methoxyethyl)-N-methyl]carbamoyl-4-(naphthalen-1-yl)-1-{1-[1-(1-naphthalen-1-ylmethyloxycarbonyl)piperidin-4-ylmethyl]-1H-imidazol-5-ylmethyl}-1H-pyrrole] | 7 nM | 20 nM | 1000 to 10000 nM | 10 nM
5 | COCCN(C)C(=O)c1cn(Cc2cncn2CC2CCN(C(=O)OCc3ccc4ccccc4c3)CC2)cc1-c1cccc2ccccc12 [Compound 20] | 6 nM | 10 nM | 1000 to 10000 nM | 10 nM
6 | COCCN(C)C(=O)c1cn(Cc2cncn2CC2CCN(C(=O)OC/C=C(\C)CCC=C(C)C)CC2)cc1-c1cccc2ccccc12 [Compound 21] | 10 to 100 nM | 50 nM | 1000 to 10000 nM | 10 to 100 nM
7 | COCCN(C)C(=O)c1cn(Cc2cncn2CC2CCN(C(=O)OCC=C(C)C)CC2)cc1-c1cccc2ccccc12 [Compound 22] | 9 nM | 20 nM | 1000 to 10000 nM | 10 to 100 nM
8 | COCCN(C)C(=O)c1cn(Cc2cncn2CC2CCN(C(=O)OCCC(C)C)CC2)cc1-c1cccc2ccccc12 [Compound 23] | 8 nM | 20 nM | 1000 to 10000 nM | 10 to 100 nM
9 | COCCN(C)C(=O)c1cn(Cc2cncn2CC2CCN(C(=O)OCc3ccc(F)cc3)CC2)cc1-c1cccc2ccccc12 [Compound 24] | 6 nM | 15 nM | 1000 to 10000 nM | 10 to 100 nM
10 | COCCN(C)C(=O)c1cn(Cc2cncn2CC2CCN(C(=O)OC/C=C/c3ccccc3)CC2)cc1-c1cccc2ccccc12 [Compound 25] | 6 nM | 27 nM | 1000 to 10000 nM | < 100 nM
11 | COCCN(C)C(=O)c1cn(Cc2cncn2CC2CCN(C(=O)OCc3csc(C(C)C)n3)CC2)cc1-c1cccc2ccccc12 [Compound 26] | 4 nM | 10 to 100 nM | 10000 to 50000 nM | 10 to 100 nM
12 | COCCN(C)C(=O)c1cn(Cc2cncn2CC2CCN(C(=O)c3ccc4ccccc4c3)CC2)cc1-c1cccc2ccccc12 [Compound 27, 3-[N-(2-Methoxyethyl)-N-methyl]carbamoyl-4-(naphthalen-1-yl)-1-{1-[1-(naphthalen-2-ylcarbonyl)piperidin-4-ylmethyl]-1H-imidazol-5-ylmethyl}-1H-pyrrole] | 9 nM | 15 nM | 1000 to 10000 nM | 10 to 100 nM
13 | COCCN(C)C(=O)c1cn(Cc2cncn2CC2CCN(C(=O)/C=C/c3ccccc3)CC2)cc1-c1cccc2ccccc12 [Compound 28] | 12 nM | 8 nM | 1000 to 10000 nM | 10 to 100 nM

Further lines, results first:

Row | IC50 (Ras farnesyl transferase [1]) | IC50 (Ras farnesyl transferase [2]) | IC50 (Ras farnesyl transferase [3]) | IC50 (Ras farnesyl transferase [4]) | SMILES
14 | 2.5 nM | 10 to 100 nM | 10000 to 50000 nM | 10 to 100 nM | COCCN(C)C(=O)c1cn(Cc2cncn2CC2CCN(C(=O)c3csc(C(C)C)n3)CC2)cc1-c1cccc2ccccc12 [Compound 29]
15 | 2.5 nM | 6 nM | 1000 to 10000 nM | 10 to 100 nM | COCCN(C)C(=O)c1cn(Cc2cncn2CC2CCN(C(=O)N(C)Cc3ccccc3)CC2)cc1-c1cccc2ccccc12 [Compound 30]
16 | 4 nM | 20 nM | 10000 to 50000 nM | 10 to 100 nM | COCCN(C)C(=O)c1cn(Cc2cncn2CC2CCN(C(=O)N3CCCc4ccccc43)CC2)cc1-c1cccc2ccccc12 [Compound 31, 3-[N-(2-Methoxyethyl)-N-methyl]carbamoyl-4-(naphthalen-1-yl)-1-{1-[1-(1,2,3,4-tetrahydroquinolin-1-ylcarbonyl)piperidin-4-ylmethyl]-1H-imidazol-5-ylmethyl}-1H-pyrrole]
17 | 2 nM | 12 nM | 1000 to 10000 nM | 10 to 100 nM | COCCN(C)C(=O)c1cn(Cc2cncn2CC2CCN(C(=O)N3CCc4ccccc4C3)CC2)cc1-c1cccc2ccccc12 [Compound 32, 3-[N-(2-Methoxyethyl)N-methyl]carbamoyl-4-(naphthalen-1-yl)-1-{1-[1-(1,2,3,4-tetrahydroisoquinolin-2-ylcarbonyl)piperidin-4-ylmethyl]-1H-imidazol-5-ylmethyl}-1H-pyrrole]
18 | 5 nM | 10 to 100 nM | 1000 to 10000 nM | 10 to 100 nM | COCCN(C)C(=O)c1cn(Cc2cncn2CC2CCN(Cc3ccc(-c4ccccc4)cc3)CC2)cc1-c1cccc2ccccc12 [Compound 33]
19 | 11 nM | 10 to 100 nM | 1000 to 10000 nM | 10 to 100 nM | COCCN(C)C(=O)c1cn(Cc2cncn2CC2CCN(Cc3ccc(Oc4ccccc4)cc3)CC2)cc1-c1cccc2ccccc12 [Compound 34, 3-[N-(2-Methoxyethyl)-N-methyl]carbamoyl-4-(naphthalen-1-yl)-1-{1-[1-(4-phenoxybenzyl)piperidin-4-ylmethyl]-1H-imidazol-5-ylmethyl}-1H-pyrrole]
